Assay results as given in patent US10457665B2, “1,4-di-(4-methylthiophenyl)-3-phtaloylazetidine-2-one and the derivatives thereof” (Universite De Nantes, priority 2015, dated 2019).

Experiments:
obese C57BL/6 mice [1] = test: Glucose tolerance test after oral treatment simultaneously with food; assay type: in vivo, mouse; settings: 28 days, administered at the same time as the meal
Experimental: In order to evaluate the long-term effects of the treatment on blood glucose control, glucose tolerance was evaluated at the end of the treatment period. The mice received an intraperitoneal injection of glucose (2 g/kg) then blood glucose was measured at times t=0, t=15 min, t=30 min, t=45 min, t=60 min, t=90 min, and t=120 min post-glucose injection using a My Life Pura blood glucose monitor (Ypsomed, Paris, France).

[2] = system: CB1R expression in liver explants of ob/ob mice; test: Liver explant culture, CB1R gene expression (RT-PCR); assay type: cell-based, mouse; settings: liver explants of ob/ob mice treated 21 h, FIG. 1
Experimental: The liver of the mice was perfused in situ, under sodium pentobarbital anaesthesia (50 mg/kg), with Hank's medium (pH 7.4) saturated with oxygen. Next, the liver was sectioned using a Brendel/Vitron slicer (Tucson, Ariz., USA) in the same medium. The liver sections (about 200 μm) were then incubated 21 h in William's medium E (WME) oxygenated and supplemented with deactivated foetal calf serum (10%) and antibiotic/antifungal cocktail (1%) under controlled atmosphere (5% CO2), to which is added either the antagonist to be tested or vehicle.
Total messenger RNA (mRNA) extraction was carried out with Tri Reagent (Euromedex, France) and consecutive synthesis of complementary DNA (cDNA) was carried out from 1 μg of mRNA with the Bio-Rad iScripttm Reverse Transcription super mix kit (Bio-Rad, France).
Gene expression was evaluated by semi-quantitative real-time reverse transcription-polymerase chain reaction (RT-PCR). The primers used were designed using the Primer3Plus software (http://www.bioinformatics.nl/cgi-bin/primer3plus/primer3plus.cgi) and were synthesized by MWG-Biotech (TATA box-binding protein: Sense […], antisense […]; CB1R: Sense […], antisense aaccccacccagtttgaac). Semi-quantification of gene expression was obtained by taking into account the efficacy of each PCR and after standardization with the reporter gene, TATA box-binding protein.

[3] = Plasma assay of triglycerides; assay type: in vivo, mouse; settings: context of obesity; stated in conclusion only
Experimental: (§1) Total cholesterol, triglycerides and hepatic markers were assayed by a Dimension Vista Intelligent Lab System (Siemens, Saint-Denis, France) using suitable reagents.

obese C57BL/6 mice [4] = test: Body mass, oral treatment simultaneously with food on high-fat diet; assay type: in vivo, mouse; settings: obese mice on high-fat diet (35% crude fat), one administration daily during the meal, 10 mg/kg oral, 28 days
Experimental: C57BL/6 mice were made obese by means of a high-fat diet (35% crude fat, 25.3% carbohydrates; ref. E15742-34, SSNIFF, Soest, Germany) for 15 weeks. […] The weight of the animals was measured every two days from the beginning of the treatment.

wild-type C57BL/6 mice = test: Acute oral glucose tolerance test (OGTT) in wild-type mice; assay type: in vivo, mouse; settings: 10 mg/kg i.p. 10 min before 2 g/kg oral glucose load, wild-type C57Bl/6J mice
Experimental: In order to evaluate the short-term effects of the rimonabant-like molecules, as well as their selectivity for CB1R, wild-type C57BL/6 mice and CB1R −/− mice underwent an oral glucose tolerance test (OGTT at 2 g/kg) 10 min after i.p. injection of vehicle or of JM-02.003 or JM-00.266 (i.e., compound IA) (10 mg/kg). Blood glucose was measured at times t=0, t=15 min, t=30 min, t=45 min, t=60 min, t=90 min, and t=120 min post-oral. glucose administration using a Contour®TS blood glucose monitor (ref. 81574201, Bayer HealthCare) and reactive strips (ref. 81574274, Bayer HealthCare).

obese C57BL/6 mice [5] = test: Plasma liver markers after 30-day chronic treatment; assay type: in vivo, mouse
Description: In order to determine the long-term effects of the molecules of interest, C57BL/6 mice made obese by means of a high-sucrose, high-fat diet (HSHF: 30% crude fat, 33.5% carbohydrates; ref. E15126-34; ref. E15126-34, SSNIFF, Soest, Germany) for 20 weeks. These mice then received daily an i.p. injection of rimonabant, JM-00.266 (i.e., compound IA) or vehicle for a period of 30 days. In parallel, weight and food intake were monitored every two days following the beginning of the treatment.
as §1

[6] = system: liver, subcutaneous and visceral adipose tissue of obese mice; test: Gene expression of markers (RT-PCR) in liver and adipose tissues after oral treatment with food; assay type: in vivo, mouse
[7] = system: liver, subcutaneous and visceral adipose tissue of obese mice; test: as above; assay type: in vivo, mouse; remark: listed apart in the source
Experimental: Total messenger RNA (mRNA) extraction was carried out with Tri-Reagent (Euromedex, France) and consecutive synthesis of complementary DNA (cDNA) was carried out from 1 μg of mRNA with the Bio-Rad iScripttm Reverse Transcription super mix kit (Bio-Rad, France). Gene expression was evaluated by semi-quantitative real-time reverse transcription-polymerase chain reaction (RT-PCR). The primers used, described below, were selected using the Primer3Plus software (http://www.bioinformatics.nl/cgi-25 bin/primer3plus/primer3plus.cgi) and synthesized by MWG-Biotech. Semi-quantification of gene expression was obtained by taking into account the efficacy of each PCR and standardization with the reporter gene TATA box-binding protein (TBP).
The impact of the treatment on endocannabinoid system activity is evaluated by measuring the gene expression 1) of receptors CB1R and CB2R 2) of the endocannabinoid synthesis enzyme, N-acyl phosphatidylethanolamine phospholipase D (NAPE-PLD) and 3) of the endocannabinoid degradation enzyme, fatty acid amide hydrolase (FAAH).
Fatty acid synthase (FAS), stearoyl-CoA desaturase 1 (SCD-1) and glycerol-phosphate acyl-transferase (GPAT2) are enzymes whose expression variations reflect lipogenic activity.
Glucose-6-phosphatase (G6P) and the glucose transporters GLUT2 and GLUT4 in the liver are used herein as neoglucogenesis markers.
F4/80 is a mature macrophage marker.
Tumour necrosis factor-alpha (TNF-a) is a proinflammatory cytokine affecting the regulation of numerous biological processes such as immune functions, cell differentiation and energy metabolism.

[8] = obese mice, 10 mg/kg i.p. daily, 30 days

## CSc1ccc(C2C(N3C(=O)c4ccccc4C3=O)C(=O)N2c2ccc(SC)cc2)cc1 (stereo not drawn) [JM-00.266, trans-1,4-di-(4-methylthiophenyl)-3-N-phthaloyl-azetidine-2-one]
Obese C57BL/6 mice [1]
  glucose tolerance versus vehicle: better glucose tolerance
[2]
  hepatic CB1R expression: significant decrease
[3]
  blood triglycerides: decreasing blood triglycerides
Obese C57BL/6 mice [4]
  weight loss versus vehicle: lose more weight
wild-type C57BL/6 mice
  glucose tolerance compared with vehicle: improves glucose tolerance
Obese C57BL/6 mice [5]; 30-day chronic treatment
  liver damage markers compared with the control: does not cause an increase
Obese C57BL/6 mice [5]; chronic administration
  liver toxicity: no liver toxicity
Obese C57BL/6 mice [5]; [8]
  ALPI plasma concentration: 47.3 ± 3.6
  ALT plasma concentration: 34.3 ± 10.5 U/L
  AST plasma concentration: 60.8 ± 13.4 U/L
  Gamma GT plasma concentration: <3 U/L
  Total bilirubin plasma concentration: <2 µmol/L
[6]
  G6P expression: reduction
  GLUT4 expression: reduction
[7]; adipose tissue
  TNF-a expression: trend towards the reduction
  expression of FAS: reduction
[7]; any of the tissues tested
  expression of CB R: not modified
  expression of FAAH: not modified
[7]; liver
  expression of GPAT: reduction
  expression of SCD-1: reduction
[7]; liver and adipose tissues
  F4/80 expression: clearly decreased
[7]; tissues of treated animals
  CB2R expression: lower
[7]; tissues tested, 28 d oral with food
  expression of NAPE-PLD: reduction
